PMC3494675, “Structure-Function Analysis of the Glioma Targeting NFL-TBS.40-63 Peptide Corresponding to the Tubulin-Binding Site on the Light Neurofilament Subunit” (PLoS ONE, 2012)
Square brackets hold non-standard residues; d marks the D form. Peptide text beside a SMILES is read from it. * marks the point of attachment. Biotin = O=C1N[C@H]2[C@H](CS[C@H]2CCCCC(=O)*)N1; pS = N[C@@H](COP(=O)(O)O)C(=O)O

What was measured:
[1] = tested on: T98G human glioblastoma cells; assay: Disintegration of the microtubule network in T98G cells (anti-tubulin immunostaining, cell counting); assay type: cell-based; conditions: 6 hours; for Disintegration of MT (% of cells): T98G cells, 10 µM biotinylated peptide, anti-tubulin immunostaining, minimum 200 cells per experiment, mean ± S.E.M., triplicated; for Effect on MT network of T98G / glioma cells (in words): 10 µM, immunocytochemistry
Method in brief: (§1)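 Cells on cover slips were cultured 6 h with 10 μM biotinylated peptide, permeabilized, and stained with anti-β-tubulin plus fluorescent streptavidin. By fluorescence/confocal microscopy, ≥200 cells per experiment were scored for peptide uptake and for a normal versus destroyed microtubule network; at least three repeats.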

glioma cells = conditions: shown previously; cited from earlier work
Text: However, contrary to the known CPPs, which are composed mostly of arginines and lysines, the NFL-TBS.40-63 peptide contains only 2 arginine residues and no lysine. […] In addition, the cell penetrating activity appears to correlate with a particular structural pattern.

[2] = tested on: T98G human glioblastoma cells; assay: Peptide incorporation into T98G cells (immunocytochemistry, cell counting); assay type: cell-based; conditions: 6 hours; for Peptide incorporation (% of cells): T98G cells, 10 µM biotinylated peptide, Alexa-labeled avidin/streptavidin fluorescence microscopy, minimum 200 cells per experiment, mean ± S.E.M., triplicated; for Cell penetration / internalization in T98G cells (in words): 10 µM, immunocytochemistry, compared to original NFL-TBS.40-63
Method in brief: as §1

[3] = Secondary structure estimation from CD spectra; assay type: physicochemical; conditions: KF/phosphate buffer pH 7.4, 20 µM, Reed's reference set
Experimental: Circular dichroism (CD) spectra were measured in a J-810 CD spectrometer (Jasco, Japan) in step mode (bandwidth: 2 nm; interval: 0.1 nm; response time: 0.125 s). The spectra were averaged over 3 scans to increase the signal to noise ratio. To optimize the measurements, a 1 cm×0.2 cm mini-quartz cell with four windows (Hellema, Germany) was used in such a way that the spectra from 260 to 200 nm were measured with a 1 cm pathlength and those between 220 and 185 nm with 0.2 cm pathlength. After normalization for pathlength (1 cm), the superimposition of two separated spectra in the 200–220 nm region was verified and the entire spectra reconstituted. The temperature of measurement was controlled with a Peltier-effect temperature controller, and was usually 20°C. The structural stability of peptides was studied by measuring the variation in CD signal at 220 nm (bandwidth: 10 nm; interval: 1 s; response time: 0.5 s; pathlength: 1 cm) when the temperature was increased by 1°C/min from 20 to 85°C. All the CD experiments were performed with 20 µM peptide under 3 buffer conditions: pure water, 2 mM SDS and 10 mM potassium phosphate pH 7.4 with 200 mM KF.
The secondary structures were estimated from the CD spectra with Jasco secondary structure estimation software. The spectra from […] were decomposed to α-helix, β-sheet, β-turn and random coil elements using either Reed's or Yang's reference set as reference spectrum of each element as described, [38]. We usually obtained better fits using Reed's reference.

Row | SMILES | Disintegration of MT (% of cells) [1] | Cell penetration / internalization (in words) (glioma cells) | Peptide incorporation (% of cells) [2] | Effect on MT network of T98G / glioma cells (in words) [1] | Cell penetration / internalization in T98G cells (in words) [2] | random coil content [3] [%] | β-sheet content [3] [%]
1 | CC(C)C[C@H](NC(=O)[C@H](CO)NC(=O)[C@@H](NC(=O)[C@H](CCCNC(=N)N)NC(=O)[C@H](CCCNC(=N)N)NC(=O)[C@H](CO)NC(=O)[C@H](Cc1ccc(O)cc1)NC(=O)[C@H](CO)NC(=O)[C@H](CO)NC(=O)[C@H](CO)NC(=O)[C@H](CO)NC(=O)CNC(=O)[C@H](CO)NC(=O)CCCC[C@@H]1SC[C@@H]2NC(=O)N[C@@H]21)C(C)C)C(=O)N[C@@H](CO)C(=O)N[C@@H](CO)C(=O)N[C@@H](CO)C(=O)N[C@H](C(=O)N1CCC[C@H]1C(=O)N[C@@H](C)C(=O)N[C@@H](CO)C(=O)N[C@@H](Cc1ccc(O)cc1)C(=O)N[C@@H](CO)C(=O)N[C@@H](CO)C(=O)N[C@@H](Cc1ccc(O)cc1)C(N)=O)C(C)C [NFL-SBT, reference compound] (Biotin-SGSSSSYSRRVSLSSSVPASYSSY-NH2) | 32.41±0.87 % of cells | do not penetrate in cells | 0 % of cells | – | – | – | –
2 | CC(C)C[C@H](NC(=O)[C@H](CO)NC(=O)CCCC[C@@H]1SC[C@@H]2NC(=O)N[C@@H]21)C(=O)NCC(=O)N[C@@H](CO)C(=O)N1CCC[C@H]1C(=O)N[C@@H](CO)C(=O)N[C@@H](CO)C(=O)N[C@@H](CO)C(=O)N[C@H](C(=O)N[C@@H](CCCNC(=N)N)C(=O)N[C@@H](C)C(=O)N[C@@H](CO)C(=O)N[C@@H](Cc1ccc(O)cc1)C(=O)N[C@@H](CO)C(=O)N[C@@H](CO)C(=O)N[C@@H](CO)C(=O)N[C@@H](CCCNC(=N)N)C(=O)N[C@@H](CO)C(=O)N[C@@H](Cc1ccc(O)cc1)C(=O)N[C@H](C(=O)N[C@@H](Cc1ccc(O)cc1)C(=O)N[C@@H](CO)C(=O)N[C@@H](CO)C(=O)N[C@@H](CO)C(N)=O)C(C)C)C(C)C [NFL-SCR, reference compound] (Biotin-SLGSPSSSVRASYSSSRSYVYSSS-NH2) | 18.18±3.2 % of cells | do not penetrate in cells | – | – | – | – | –
3 | CC(C)C[C@H](NC(=O)[C@H](CO)NC(=O)[C@H](CO)NC(=O)[C@H](CO)NC(=O)[C@@H](NC(=O)[C@@H]1CCCN1C(=O)[C@H](C)NC(=O)[C@H](CO)NC(=O)[C@H](Cc1ccc(O)cc1)NC(=O)[C@H](CO)NC(=O)[C@H](CO)NC(=O)[C@H](Cc1ccc(O)cc1)NC(=O)CCCC[C@@H]1SC[C@@H]2NC(=O)N[C@@H]21)C(C)C)C(=O)N[C@@H](CO)C(=O)N[C@H](C(=O)N[C@@H](CCCNC(=N)N)C(=O)N[C@@H](CCCNC(=N)N)C(=O)N[C@@H](CC(=O)O)C(=O)N[C@@H](Cc1ccc(O)cc1)C(=O)N[C@@H](CC(=O)O)C(=O)N[C@@H](CO)C(=O)N[C@@H](CO)C(=O)N[C@@H](CO)C(=O)NCC(=O)N[C@@H](CO)C(N)=O)C(C)C [Ser17,19Asp] (Biotin-YSSYSAPVSSSLSVRRDYDSSSGS-NH2) | 18.6±6.8 % of cells | – | 29.0±12.7 % of cells | not altered | decreased internalization | – | –
4 | CC(C)C[C@H](NC(=O)[C@H](CO)NC(=O)[C@H](CO)NC(=O)[C@H](CO)NC(=O)[C@@H](NC(=O)[C@@H]1CCCN1C(=O)[C@H](C)NC(=O)[C@H](CO)NC(=O)[C@H](Cc1ccc(O)cc1)NC(=O)[C@H](CO)NC(=O)[C@H](CO)NC(=O)[C@H](C)NC(=O)CCCC[C@@H]1SC[C@@H]2NC(=O)N[C@@H]21)C(C)C)C(=O)N[C@@H](CO)C(=O)N[C@H](C(=O)N[C@@H](CCCNC(=N)N)C(=O)N[C@@H](CCCNC(=N)N)C(=O)N[C@@H](CO)C(=O)N[C@@H](Cc1ccc(O)cc1)C(=O)N[C@@H](CO)C(=O)N[C@@H](CO)C(=O)N[C@@H](CO)C(=O)N[C@@H](CO)C(=O)NCC(=O)N[C@@H](CO)C(N)=O)C(C)C [Tyr1Ala] (Biotin-ASSYSAPVSSSLSVRRSYSSSSGS-NH2) | 24.1±4.6 % of cells | – | 0 % of cells | – | – | – | –
5 | CC(C)C[C@H](NC(=O)[C@H](CO)NC(=O)[C@H](CO)NC(=O)[C@H](CO)NC(=O)[C@@H](NC(=O)[C@@H]1CCCN1C(=O)[C@H](C)NC(=O)[C@H](CO)NC(=O)[C@H](Cc1ccc(O)cc1)NC(=O)[C@H](CO)NC(=O)[C@H](CO)NC(=O)[C@H](Cc1ccc(O)cc1)NC(=O)CCCC[C@@H]1SC[C@@H]2NC(=O)N[C@@H]21)C(C)C)C(=O)N[C@@H](CO)C(=O)N[C@H](C(=O)N[C@@H](CCCNC(=N)N)C(=O)N[C@@H](CCCNC(=N)N)C(=O)N[C@@H](COP(=O)(O)O)C(=O)N[C@@H](Cc1ccc(O)cc1)C(=O)N[C@@H](CO)C(=O)N[C@@H](CO)C(=O)N[C@@H](CO)C(=O)N[C@@H](CO)C(=O)NCC(=O)N[C@@H](CO)C(N)=O)C(C)C [Ser17SerP] (Biotin-YSSYSAPVSSSLSVRR[pS]YSSSSGS-NH2) | 22.9±1.3 % of cells | – | 32.8±8.7 % of cells | not altered | decreased internalization | 53 | 40
6 | CC(C)C[C@H](NC(=O)[C@H](CO)NC(=O)[C@H](CO)NC(=O)[C@H](CO)NC(=O)[C@@H](NC(=O)[C@@H]1CCCN1C(=O)[C@H](C)NC(=O)[C@H](CO)NC(=O)[C@H](Cc1ccc(O)cc1)NC(=O)[C@H](CO)NC(=O)[C@H](CO)NC(=O)[C@H](Cc1ccc(O)cc1)NC(=O)CCCC[C@@H]1SC[C@@H]2NC(=O)N[C@@H]21)C(C)C)C(=O)N[C@@H](CO)C(=O)N[C@H](C(=O)N[C@@H](CCCNC(=N)N)C(=O)N[C@@H](CCCNC(=N)N)C(=O)N[C@@H](CO)C(=O)N[C@@H](Cc1ccc(O)cc1)C(=O)N[C@@H](COP(=O)(O)O)C(=O)N[C@@H](CO)C(=O)N[C@@H](CO)C(=O)N[C@@H](CO)C(=O)NCC(=O)N[C@@H](CO)C(N)=O)C(C)C [Ser19SerP] (Biotin-YSSYSAPVSSSLSVRRSY[pS]SSSGS-NH2) | 19.4±2.1 % of cells | – | 27.3±12.1 % of cells | not altered | decreased internalization | 60 | 34
7 | CC(C)C[C@H](NC(=O)[C@H](CO)NC(=O)[C@H](CO)NC(=O)[C@H](CO)NC(=O)[C@@H](NC(=O)[C@@H]1CCCN1C(=O)[C@H](C)NC(=O)[C@H](CO)NC(=O)[C@H](Cc1ccc(O)cc1)NC(=O)[C@H](CO)NC(=O)[C@H](CO)NC(=O)[C@H](Cc1ccccc1)NC(=O)CCCC[C@@H]1SC[C@@H]2NC(=O)N[C@@H]21)C(C)C)C(=O)N[C@@H](CO)C(=O)N[C@H](C(=O)N[C@@H](CCCNC(=N)N)C(=O)N[C@@H](CCCNC(=N)N)C(=O)N[C@@H](CO)C(=O)N[C@@H](Cc1ccc(O)cc1)C(=O)N[C@@H](CO)C(=O)N[C@@H](CO)C(=O)N[C@@H](CO)C(=O)N[C@@H](CO)C(=O)NCC(=O)N[C@@H](CO)C(N)=O)C(C)C [Tyr1Phe] (Biotin-FSSYSAPVSSSLSVRRSYSSSSGS-NH2) | 41.2±4.0 % of cells | – | 56.3±2.8 % of cells | – | – | – | –
8 | CC(C)C[C@H](NC(=O)[C@H](CO)NC(=O)[C@H](CO)NC(=O)[C@H](CO)NC(=O)[C@@H](NC(=O)[C@@H]1CCCN1C(=O)[C@H](C)NC(=O)[C@H](CO)NC(=O)[C@H](Cc1ccc(O)cc1)NC(=O)[C@H](CO)NC(=O)[C@H](CO)NC(=O)[C@H](Cc1ccc(O)cc1)NC(=O)CCCC[C@@H]1SC[C@@H]2NC(=O)N[C@@H]21)C(C)C)C(=O)N[C@@H](CO)C(=O)N[C@H](C(=O)N[C@@H](CCCNC(=N)N)C(=O)N[C@@H](CCCCN)C(=O)N[C@@H](CO)C(=O)N[C@@H](Cc1ccc(O)cc1)C(=O)N[C@@H](CO)C(=O)N[C@@H](CO)C(=O)N[C@@H](CO)C(=O)N[C@@H](CO)C(=O)NCC(=O)N[C@@H](CO)C(N)=O)C(C)C [Arg16Lys] (Biotin-YSSYSAPVSSSLSVRKSYSSSSGS-NH2) | 36.9±0.9 % of cells | – | 32.9±1.3 % of cells | – | – | – | –
9 | CC(C)C[C@H](NC(=O)[C@H](CO)NC(=O)[C@H](CO)NC(=O)[C@H](CO)NC(=O)[C@@H](NC(=O)[C@@H]1CCCN1C(=O)[C@H](C)NC(=O)[C@H](CO)NC(=O)[C@H](C)NC(=O)[C@H](CO)NC(=O)[C@H](CO)NC(=O)[C@H](Cc1ccc(O)cc1)NC(=O)CCCC[C@@H]1SC[C@@H]2NC(=O)N[C@@H]21)C(C)C)C(=O)N[C@@H](CO)C(=O)N[C@H](C(=O)N[C@@H](CCCNC(=N)N)C(=O)N[C@@H](CCCNC(=N)N)C(=O)N[C@@H](CO)C(=O)N[C@@H](Cc1ccc(O)cc1)C(=O)N[C@@H](CO)C(=O)N[C@@H](CO)C(=O)N[C@@H](CO)C(=O)N[C@@H](CO)C(=O)NCC(=O)N[C@@H](CO)C(N)=O)C(C)C [Tyr4Ala] (Biotin-YSSASAPVSSSLSVRRSYSSSSGS-NH2) | 24.4±4.6 % of cells | – | 5.3±2.4 % of cells | – | – | – | –
